Data taken from publication PMC10424242, “Macrocyclic Peptidomimetic Plasmepsin X Inhibitors with Potent In Vitro and In Vivo Antimalarial Activity” (Journal of Medicinal Chemistry, 2023).
Read-outs that look alike come from different tables or passages of the source.

Tests used:
[1] = target: recombinant P. falciparum PMX (Plasmodium falciparum, UniProt Q8IAS0); assay: Recombinant P. falciparum PMX inhibition assay (fluorogenic substrate Rh2N); format: biochemical
Experimental: The fluorescence of this peptide is quenched by the spatial proximity of the DABCYL/EDANS groups in the uncleaved peptide and is increased upon cleavage at the internal F–I bond. […] Control wells contained no inhibitor, and the plate was blanked against the substrate only in DB. […] All experiments were performed in duplicate.

[2] = Plasma protein binding (rapid equilibrium dialysis); format: in vitro ADME; settings: pH 7.4, mouse plasma, 2 h at 37 °C
Experimental: Plasma protein binding was performed with rapid equilibrium dialysis (RED) device inserts containing a dialysis membrane with a molecular weight cut-off of 8000 Daltons. Inserts were placed in the single-use RED plate without prior preparation.
The test compound at a concentration of 5 μM was added to mouse plasma and dialyzed against phosphate-buffered saline (PBS, pH 7.4) for 2 h at 37 °C. Propranolol hydrochloride was used as a positive control (high PPB), and fluconazole was used as negative control (low PPB). After dialysis, the drug concentration in the buffer and plasma compartments was quantified by liquid chromatography and tandem mass spectrometry (LC-MS/MS) analysis.

[3] = Liver microsomal metabolic stability; format: in vitro ADME, mouse; settings: pooled liver microsomes, pH 7.4, mouse liver microsomes, 5 μM; for microsomal CLint at 1 h, 5 μM: read-out: microsomal stability CL(int)
Experimental: Microsomal stability assays are performed as described elsewhere.[41] Test compounds and pooled mouse liver microsomes are incubated in potassium phosphate buffer in the presence of the cofactor NADPH at 37 °C. Reaction mixtures (700 μL) contain a final concentration of 5 μM test compound, 0.05% DMSO, 0.5 mg/mL microsomes, and ∼0.7–0.9 mM NADPH in 100 mM potassium phosphate buffer at pH 7.4. Reactions are terminated by the addition of 100 μL of the reaction mixture to 900 μL of acetonitrile after 0, 5, 15, 30, 45, and 60 min of incubation. Samples were centrifuged, and the resultant supernatant was analyzed by ultra-performance liquid chromatography–tandem mass spectrometry (UPLC-MS/MS). The amount of remaining compound is calculated and compared to the initial amount of test compound (zero time point). Verapamil is used as a positive control, and samples prepared without cofactor NADPH are used as a negative control (0 and 60 min). The in vitro metabolic stability parameters (half-life value (t1/2) and intrinsic clearance value (Clint)) are calculated from the slope of the Ln of concentration remaining vs the time curve.

[4] = target: BACE1 (Homo sapiens, UniProt P56817); assay: FRET-based BACE1 inhibition assay (selectivity counter screen); format: biochemical
Experimental: (§1) A fluorescence resonance energy transfer (FRET)-based assay was performed to assess the ability of the compounds to inhibit PMIV, CatD, and BACE1. Serial dilutions of test compounds were dispensed in a white 96-well plate. […] The mixture was incubated for 20 min at 37 °C. […] IC50 values were calculated with GraphPad Prism 8.0 using the nonlinear regression, variable slope (four parameters). Compounds were tested in triplicate.

[5] = target: PMIV (Plasmodium falciparum, UniProt Q8IM16); assay: FRET-based PMIV inhibition assay; format: biochemical, P. falciparum
Experimental: as §1

[6] = target: cathepsin D (CatD) (Homo sapiens, UniProt P07339); assay: FRET-based CatD inhibition assay (selectivity counter screen); format: biochemical
Experimental: as §1

[7] = recombinant PMX, read-out: PMX, nM (IC50)
[8] = Table 3, read-out: PMX, nM (as listed in Table 3)
[9] = Table 3, read-out: PMIV, nM (as listed in Table 3)

cathepsin D (CatD), sequence (P07339 65-412): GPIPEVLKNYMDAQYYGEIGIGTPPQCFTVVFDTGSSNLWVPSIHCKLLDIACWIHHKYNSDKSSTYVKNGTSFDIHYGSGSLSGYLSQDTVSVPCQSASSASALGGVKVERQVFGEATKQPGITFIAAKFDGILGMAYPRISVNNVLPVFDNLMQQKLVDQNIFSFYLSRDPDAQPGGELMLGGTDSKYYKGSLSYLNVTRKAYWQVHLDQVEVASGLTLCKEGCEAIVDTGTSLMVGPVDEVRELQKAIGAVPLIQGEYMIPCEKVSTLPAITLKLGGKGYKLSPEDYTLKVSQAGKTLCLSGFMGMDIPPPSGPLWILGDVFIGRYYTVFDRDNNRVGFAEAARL
BACE1, sequence (P56817 46-501): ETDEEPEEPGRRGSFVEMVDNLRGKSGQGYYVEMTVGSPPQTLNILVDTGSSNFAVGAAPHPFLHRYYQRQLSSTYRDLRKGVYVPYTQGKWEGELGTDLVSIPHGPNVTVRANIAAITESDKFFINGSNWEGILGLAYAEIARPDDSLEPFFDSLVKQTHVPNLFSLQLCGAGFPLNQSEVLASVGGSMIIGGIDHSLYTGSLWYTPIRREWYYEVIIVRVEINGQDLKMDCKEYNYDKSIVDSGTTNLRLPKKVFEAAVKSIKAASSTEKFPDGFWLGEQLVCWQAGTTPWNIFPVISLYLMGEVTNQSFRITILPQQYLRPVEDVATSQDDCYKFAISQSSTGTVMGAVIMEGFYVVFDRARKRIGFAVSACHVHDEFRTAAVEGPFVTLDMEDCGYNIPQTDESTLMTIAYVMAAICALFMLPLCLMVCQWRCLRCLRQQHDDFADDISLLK
recombinant P. falciparum PMX, sequence (Q8IAS0 222-573): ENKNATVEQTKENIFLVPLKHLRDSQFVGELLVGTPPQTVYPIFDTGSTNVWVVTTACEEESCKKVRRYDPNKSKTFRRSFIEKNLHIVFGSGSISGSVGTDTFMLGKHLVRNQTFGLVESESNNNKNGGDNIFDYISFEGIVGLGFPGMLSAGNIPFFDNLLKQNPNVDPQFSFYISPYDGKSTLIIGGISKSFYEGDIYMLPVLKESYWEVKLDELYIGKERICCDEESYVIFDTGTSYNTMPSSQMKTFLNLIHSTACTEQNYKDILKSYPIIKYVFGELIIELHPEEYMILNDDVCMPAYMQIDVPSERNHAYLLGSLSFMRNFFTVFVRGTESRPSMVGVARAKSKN
PMIV, sequence (Q8IM16 122-449): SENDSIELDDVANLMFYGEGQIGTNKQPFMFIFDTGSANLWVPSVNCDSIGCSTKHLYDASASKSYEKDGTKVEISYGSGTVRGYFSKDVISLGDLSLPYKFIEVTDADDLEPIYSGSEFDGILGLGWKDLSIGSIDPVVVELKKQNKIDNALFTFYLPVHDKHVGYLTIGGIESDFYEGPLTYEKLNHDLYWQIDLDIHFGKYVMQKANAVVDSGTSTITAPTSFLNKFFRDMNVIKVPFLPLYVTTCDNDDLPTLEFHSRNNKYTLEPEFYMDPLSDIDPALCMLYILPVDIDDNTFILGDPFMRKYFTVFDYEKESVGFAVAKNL

Q: Which results are given for `CCCN(CCC)C(=O)c1cccc(C(=O)N[C@@H](Cc2ccccc2)[C@H](O)CNC(C)(C)c2cccc(OC)c2)c1` [6a]?
A: IC50 [1, 7]: 6.2 ± 0.3 nM; fraction unbound at 2 h, 5 µM [2]: 0.009; half-life at 1 h, 5 μM [3]: 6.4 min; microsomal CLint at 1 h, 5 μM [3]: 216 µL/min/mg

Q: What does the source list for `COc1cccc(C(C)(C)NC[C@@H](O)[C@@H]2Cc3cccc(c3)OCCCCNC(=O)c3cccc(c3)C(=O)N2)c1` [7b, (S)-4-((R)-1-Hydroxy-2-((2-(3-methoxyphenyl)propan-2-yl)amino)ethyl)-7-oxa-3,12-diaza-1,6(1,3)-dibenzenacyclotridecaphane-2,13-dione]?
A: IC50 [1]: 4.1 ± 0.3 nM; IC50 [1, 7]: 11.2 ± 0.7 nM; IC50 [4]: 910 ± 40 nM; fraction unbound at 2 h, 5 µM [2]: 0.0274; half-life at 1 h, 5 μM [3]: 31.3 min; microsomal CLint at 1 h, 5 μM [3]: 44.3 µL/min/mg; IC50 [5]: 60 ± 3 nM; IC50 ([5]; read-out: PMIV, nM (IC50)): 510 ± 30 nM; IC50 [6]: 650 ± 30 nM

Q: What does the source list for `COc1cccc(C(C)(C)NC[C@@H](O)[C@@H]2Cc3cccc(c3)OCCCCN(C)C(=O)c3cccc(c3)C(=O)N2)c1` [7c, (S)-4-((R)-1-Hydroxy-2-((2-(3-methoxyphenyl)propan-2-yl)amino)ethyl)-12-methyl-7-oxa-3,12-diaza-1,6(1,3)-dibenzenacyclotridecaphane-2,13-dione]?
A: IC50 [1]: 11.2 ± 0.7 nM; IC50 [1, 7]: 5.3 ± 3 nM; IC50 [4]: 1030 ± 50 nM; fraction unbound at 2 h, 5 µM [2]: 0.0351; half-life at 1 h, 5 μM [3]: 16.9 min; microsomal CLint at 1 h, 5 μM [3]: 81.9 µL/min/mg; IC50 [5]: 510 ± 30 nM; IC50 ([5]; read-out: PMIV, nM (IC50)): 170 ± 20 nM; IC50 [6]: 320 ± 20 nM

Q: What does the source list for `COc1cccc(C(C)(C)NC[C@@H](O)[C@@H]2Cc3cccc(c3)OCCCCN(CCC(F)(F)F)C(=O)c3cccc(c3)C(=O)N2)c1` [7d, (S)-4-((R)-1-Hydroxy-2-((2-(3-methoxyphenyl)propan-2-yl)amino)ethyl)-12-(3,3,3-trifluoropropyl)-7-oxa-3,12-diaza-1,6(1,3)-dibenzenacyclotridecaphane-2,13-dione]?
A: IC50 [1]: 5.3 ± 3 nM; IC50 [1, 7]: 8.6 ± 2.4 nM; IC50 [4]: 2100 ± 100 nM; fraction unbound at 2 h, 5 µM [2]: 0.0125; half-life at 1 h, 5 μM [3]: 20.4 min; microsomal CLint at 1 h, 5 μM [3]: 67.9 µL/min/mg; IC50 [5]: 170 ± 20 nM; IC50 ([5]; read-out: PMIV, nM (IC50)): 61 ± 4 nM; IC50 [6]: 230 ± 20 nM

Q: What does the source list for `COc1cccc(C(C)(C)NC[C@@H](O)[C@@H]2Cc3cccc(c3)OCCCCN(CC(C)(C)C)C(=O)c3cccc(c3)C(=O)N2)c1` [7e]?
A: IC50 [1]: 8.6 ± 2.4 nM; IC50 [1, 7]: 2.5 ± 0.2 nM; IC50 [4]: 1900 ± 100 nM; fraction unbound at 2 h, 5 µM [2]: 0.0035; half-life at 1 h, 5 μM [3]: 13.7 min; microsomal CLint at 1 h, 5 μM [3]: 101 µL/min/mg; IC50 [5]: 61 ± 4 nM; IC50 ([5]; read-out: PMIV, nM (IC50)): 40 nM; IC50 [6]: 630 nM

Q: What does the source list for `CCCN1CCCCCOc2cccc(c2)C[C@@H]([C@H](O)CNC(C)(C)c2cccc(OC)c2)NC(=O)c2cccc(c2)C1=O` [7g, (S)-4-((R)-1-Hydroxy-2-((2-(3-methoxyphenyl)propan-2-yl)amino)ethyl)-13-propyl-7-oxa-3,13-diaza-1,6(1,3)-dibenzenacyclotetradecaphane-2,14-dione]?
A: IC50 [1, 8]: 6.9 ± 0.49 nM; IC50 [1, 7]: 6.9 ± 0.49 nM; IC50 [4]: 6000 ± 300 nM; fraction unbound at 2 h, 5 µM [2]: 0.0079; half-life at 1 h, 5 μM [3]: 7.64 min; microsomal CLint at 1 h, 5 μM [3]: 181 µL/min/mg; IC50 [5, 9]: 190 nM; IC50 ([5]; read-out: PMIV, nM (IC50)): 190 nM; IC50 [6]: 1200 nM

Q: For `CCCN1CCOc2cccc(c2)C[C@@H]([C@H](O)CNC(C)(C)c2cccc(OC)c2)NC(=O)c2cccc(c2)C1=O` [7h], which IC50 [1, 8] is on record?
A: 6.8 ± 0.59 nM

Q: And the IC50 [1, 7]?
A: 6.8 ± 0.59 nM

Q: And the IC50 [4]?
A: 1850 ± 90 nM

Q: And the fraction unbound at 2 h, 5 µM [2]?
A: 0.0384

Q: What about the half-life at 1 h, 5 μM [3] of the same molecule?
A: 13.9 min

Q: And the microsomal CLint at 1 h, 5 μM [3]?
A: 99.8 µL/min/mg

Q: What about the IC50 [5, 9] of the same molecule?
A: 200 nM

Q: And the IC50 ([5]; read-out: PMIV, nM (IC50))?
A: 200 nM

Q: What about the IC50 [6] of the same molecule?
A: 600 nM

Q: For `CCCN1CCOCCc2cccc(c2)C[C@@H]([C@H](O)CNC(C)(C)c2cccc(OC)c2)NC(=O)c2cccc(c2)C1=O` [7i, (S)-4-((R)-1-Hydroxy-2-((2-(3-methoxyphenyl)propan-2-yl)amino)ethyl)-12-propyl-9-oxa-3,12-diaza-1,6(1,3)-dibenzenacyclotridecaphane-2,13-dione], which IC50 [1, 8] is on record?
A: 4.6 ± 0.07 nM

Q: What about the IC50 [1, 7] of the same molecule?
A: 4.6 ± 0.07 nM

Q: And the IC50 [4]?
A: 22700 ± 1100 nM

Q: What about the fraction unbound at 2 h, 5 µM [2] of the same molecule?
A: 0.0287

Q: And the half-life at 1 h, 5 μM [3]?
A: 8.39 min

Q: What about the microsomal CLint at 1 h, 5 μM [3] of the same molecule?
A: 165 µL/min/mg

Q: What about the IC50 [5, 9] of the same molecule?
A: 81 ± 4 nM

Q: What about the IC50 ([5]; read-out: PMIV, nM (IC50)) of the same molecule?
A: 81 ± 4 nM

Q: And the IC50 [6]?
A: 1650 ± 80 nM
